Laboratory results published in patent US5668157A, “Cyanoguanidines as K-channel blockers” (Pharmacia & Upjohn Company, priority 1996, dated 1997).

Legend:
[1] = Diuretic screen: urinary Na^+ excretion after IP administration to rats; type: in vivo, rat (female Harlan Sprague-Dawley); details: rat, IP, 5, 15 and 30 mg/kg, 5 hour test period
Method: (§1) Data for K^+ channel antagonist activity on rabbit mesenteric artery (RMA) and natriuretic efficacy after […] (IP) administration to rats are collected in Table II.
The diuretic activity was determined in female Harlan Sprague-Dawley rats weighing 200 to 230 grams that were fasted 15 hours overnight, and then were deprived of both food and water for an additional hour prior to dosing. […] It approximates the area under the dose response curve. The vehicle was 20% dimethylacetamide (DMA; v/v) in a pH 7.4 phosphate buffer (0.58% Na2 HPO4 and 0.13% NaH2 PO4.H2 O). Sufficient drug was suspended in 1 to 2 ml of this vehicle to deliver doses of 5, 15 and 30 mg/kg in a volume of 0.5 ml (2-4 rats/dose). At least 2 vehicle control rats, and, for most tests, 2 standard diuretic treated rats were included in each experiment. Standards used as comparators included the K^+ retaining diuretic amiloride and the K^+ wasting diuretics furosemide, hydrochlorothiazide and metolazone.
Following their IP doses, the rats' urinary bladders were gently compressed to eliminate all pretreatment urine, and two identically treated rats were placed in a stainless steel metabolism cage equipped with a graduated test tube to collect voided urine. At 2 and 5 hours post treatment, the rats' bladders were again compressed, the volume of urine excreted by the pair of rats was recorded, and aliquots of urine were retained for analysis of Na^+ and K^+ concentrations with a NOVA-13 selective ion analyzer. Following the 5 hour urine collection, the rats were returned to their stock cages, and at least 1 week of recovery was allowed between a maximum of 3 diuretic tests.
The electrolyte concentrations detected in these urine samples were manually multiplied by their respective volumes to determine total milliequivalent (mEq) excretion of Na^+ and K^+ per pair of rats, and the results obtained with multiple racks per drug treatment were averaged. Increases in urinary Na^+ excretion of 50% or more above the pooled control tests were regarded as reflecting activity.
^c This represents the net increase (above control) in urinary
Na^+ excretion (μEq) for the 5 hour test period divided by the
total of the three drug doses (mg/kg) administered IP in the stage II
diuretic screen in rats. It approximates the area under the dose response

[2] = tested on: K^+ channel, rabbit mesenteric artery (RMA) rings; assay: Inhibition of pinacidil-induced relaxation of norepinephrine-contracted isolated rabbit mesenteric artery (RMA) rings (K^+ channel antagonism); type: cell-based; details: Oryctolagus cuniculus, 0.25 h, pinacidil 1 μM, norepinephrine 5 μM, read-out: RMA K^+ Antagonism % I (percent inhibition of pinacidil relaxation at 15 minutes); for inhibition at 10 µM: conc. 10 μM; for inhibition at 0.3 µM: conc. 0.3 μM; for inhibition at 0.1 µM: conc. 0.1 μM
Method: The results for potassium channel blocking were obtained by using isolated rabbit mesenteric artery (RMA) procedures. Norepinephrine (5 μM) was used to contract the RMA rings twice, with an hour separating the two contractions. During this hour the tissues equilibrated in physiological salt solution at a resting tension of 1 gram. Upon the plateau of the second contraction 1 μM pinacidil was added to all tissues and the resulting relaxation time course was studied for thirty minutes. […] By studying the ability of the test compounds to inhibit this pinacidil-induced relaxation, the degree of potassium antagonism could be determined. The compounds were applied to the tissues for one hour between the two contractions and the pinacidil-induced relaxation was studied in the continuing presence of the compounds. Thus, the total time of pretreatment with the test compound was 75 minutes before the addition of pinacidil.
as §1
^a Lowest inhibitor concentration (μM) that gave greater than 20%
inhibition or lowest concentration tested.
^b This is a measure of a compound's ability to inhibit the relaxatio
of norepinephrine (5 μM) contracted rabbit mesenteric artery rings by
pinacidil (1 μM). It is expressed as percent inhibition. Compounds wit
65% or greater inhibition at 5 μM are considered to be active, with
20-65% inhibition moderately active and with less than 20% inhibition

[3] = tested on: K^+ channel, rabbit mesenteric artery (RMA) rings; details: pinacidil 1 μM, norepinephrine-contracted RMA rings; cited from earlier work

| SMILES | 5 h Net Natriuretic Efficacy (net increase above control in urinary Na^+ excretion divided by total of three doses) [1] [μEq Na^+ /mg/kg] | inhibition at 10 µM [2] [%] | further results |
| --- | --- | --- | --- |
| C[C@@H](NC(=NC#N)Nc1cccnc1N(C)C)c1ccccc1 [Compound 5, (R)-N-[2-(Dimethylamino)-3-pyridyl]-N"-cyano-N'-(1-phenylethyl)guanidine] | 15 |  | inhibition at 5 µM ([2]; conc. 5 μM): 17.4% |
| CC[C@@H](NC(=NC#N)Nc1ccc(C)nc1)c1ccccc1 [Compound 8, (R)-N-(6-Methyl-3-pyridyl)-N"-cyano-N'-(1-phenylpropyl)guanidine] | 25 | 84.1 |  |
| CC[C@@H](NC(=NC#N)Nc1cncc(N)c1)c1ccccc1 [Compound 12, (R)-N-(5-Amino-3-pyridyl)-N"-cyano-N'-(1-phenylpropyl)guanidine] | 26 | 85.8 |  |
| N#CN=C(Nc1cncc(N)c1)NC1(c2ccccc2)CCC1 [Compound 3, N-(5-Amino-3-pyridyl)-N"-cyano-N'-(1-phenylcyclobutyl)guanidine] | 50 |  | inhibition at 0.3 µM [2]: 93% |
| CN(C)c1ncccc1NC(=NC#N)NC1(c2ccccc2)CCC1 [Compound 4, N-[2-(Dimethylamino)-3-pyridyl]-N"-cyano-N'-(1-phenylcyclobutyl)guanidine] | 10 |  | inhibition at 2 µM ([2]; conc. 2.0 μM): 87% |
| CC(N/C(=N\C#N)Nc1ccncc1)C(C)(C)C (centres unmarked) [pinacidil] |  |  | K^+ channel dependent vasodilation by pinacidil [3]: maximal K^+ channel dependent vasodilation |
| CC[C@@H](NC(=NC#N)Nc1cccnc1C)c1ccccc1 [Compound 11, (R)-N-(2-Methyl-3-pyridyl)-N"-cyano-N'-(1-phenylpropyl)guanidine] | 25 | 91.6 |  |
| CC[C@@H](NC(=NC#N)Nc1ccc(NCCF)nc1)c1ccccc1 [Compound 10, (R)-N-[6-(2-Fluoroethylamino)-3-pyridyl]-N"-cyano-N'-(1-phenylpropyl)guanidine] | 34 | 72.3 |  |
| N#CN=C(Nc1cnc(Cl)c(N)c1)NC1(c2ccccc2)CCC1 [Compound 1, N-(5-Amino-6-chloro-3-pyridyl)-N"-cyano-N'-(1-phenylcyclobutyl)guanidine] | 39 |  | inhibition at 0.1 µM [2]: 90% |
| Cc1nc(N)ccc1NC(=NC#N)NC1(c2ccccc2)CCC1 [Compound 2, N-(6-Amino-2-methyl-3-pyridyl)-N"-cyano-N'-(1-phenylcyclobutyl)guanidine, methanol solvate] | 77 |  | inhibition at 0.3 µM [2]: 96% |
| CC[C@@H](N=C(NC#N)Nc1cccnc1Cl)c1ccccc1 [Compound 6, (R)-N-(2-chloro-3-pyridyl)-N'-cyano-N"-(1-phenylpropyl)guanidine] | 48 |  | inhibition at 0.1 µM [2]: 77.5% |
| CC(=O)Nc1cncc(NC(=NC#N)NC2(c3ccccc3)CCC2)c1 [Compound 13, N-(5-Acetylamino-3-pyridyl)-N"-cyano-N'-(1-phenylcyclobutyl)guanidine] | 15 | 6.4 |  |
| N#CN=C(Nc1ccc(NCCF)nc1)NC1(c2ccccc2)CCC1 [Compound 7, N-[6(2-Fluoroethylamino)-3-pyridyl]-N"-cyano-N'-(1-phenylcyclobutyl)guanidine] | 60 |  | inhibition at 1 µM ([2]; conc. 1.0 μM): 24.3% |
| CC[C@@H](NC(=NC#N)Nc1ccc(NS(C)(=O)=O)nc1)c1ccccc1 [Compound 14, (R)-N-(6-Methanesulfonylamino-3-pyridyl)-N"-cyano-N'-(1-phenylpropyl)guanidine] | 21 |  | inhibition at 30 µM ([2]; conc. 30 μM): 2.3% |
| CC[C@@H](NC(=NC#N)Nc1cncc(Br)c1)c1ccccc1 [Compound 9, (R)-N-(5-Bromo-3-pyridyl)-N"-cyano-N'-(1-phenylpropyl)guanidine] | 12 | 94.6 |  |
